Data on 23 compounds can be found in patent US8088761B2, “Enzyme inhibitors” (Cancer Research Technology Limited, priority 2005, dated 2012).

One test concerns HCT116 cells. The experiment in a line: Cell viability assay (MTT) in HCT116 cell line. The settings on record: Homo sapiens, HCT-116, 72 hrs, IC50 range, read-out: HCT116 cell growth inhibition. The format is cell-based. The protocol: Cell Viability Assay: Determination of IC50 of Aurora Inhibitors in HCT116 Cell Line Using MTT Assay. The effects of compounds of the Examples on cellular proliferation were determined using the MTT assay according to manufacturer's instructions (Sigma). Briefly, the human colon tumour cells HCT116, were seeded in triplicate into 96-well plates at 2500 cells/well 24 hours before treatment with a range of concentrations of Aurora inhibitors (0-50 μM). After 72 hrs, 15 μl/well of 0.5% 3-(4,5-dimethylthiazol-2-yl)-2,5-diphenyltetrazolium bromide (MTT) was added to the cells for 4 hrs at 37° C., the dye-stained viable cells were extracted by adding 150 μl/well of dimethyl sulphoxide (DMSO). […] The IC50 was calculated using the Prism software.

For the next test, the target named is T1, Aurora-A (Homo sapiens, UniProt O14965).
T1 sequence (O14965 1-403): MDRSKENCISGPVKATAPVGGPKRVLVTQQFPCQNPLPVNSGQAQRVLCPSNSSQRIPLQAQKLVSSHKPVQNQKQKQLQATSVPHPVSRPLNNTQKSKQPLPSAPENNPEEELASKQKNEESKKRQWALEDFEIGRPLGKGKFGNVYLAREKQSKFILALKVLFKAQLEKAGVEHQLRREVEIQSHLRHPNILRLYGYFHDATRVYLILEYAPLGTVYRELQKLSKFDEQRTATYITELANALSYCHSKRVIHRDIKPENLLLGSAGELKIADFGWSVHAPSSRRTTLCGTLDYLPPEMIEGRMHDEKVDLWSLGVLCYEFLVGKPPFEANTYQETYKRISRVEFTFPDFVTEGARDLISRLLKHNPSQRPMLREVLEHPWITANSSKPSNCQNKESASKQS
Description: Flashplate Aurora A enzyme inhibition assay. The format is biochemical. The following applies: Flashplate assay; IC50 range; read-out: Aurora-A inhibition. As for the experimental part:
Flashplate® Assay for Identification and Evaluation of Aurora-A Inhibitors
On this assay 384-well Basic Flashplate® (SMP400E, PerkinElmer) as solid assay platform was used. The plates were coated overnight at 4° C. with […] at 100 μg/ml in PBS buffer and used after being washed twice with PBS. 5 μl of compound in 2% DMSO was added to each well followed by 15 μl master mix of kinase buffer (50 mM Tris pH 7.5, 10 mM NaCl, 2.5 mM MgCl2, 1 mM […], 20 μM ATP, and 0.025 μCi/μl ^33P-ATP). Finally, 250 ng per well of Aurora-A enzyme was added. The plate was shaken for approximately 2 min on a flat-bed plate shaker (Wellmix, Denley, UK) and incubated for 2 hours at room temperature. The reaction was stopped by washing the plate twice on a 16-pin wash (ELX50 BioTek Instruments Ltd., Northstar, Bedford, UK) with 10 mM sodium pyrophosphate. The plate was then read on a TopCount-NX™ (PerkinElmer Life Sciences UK Ltd., Hounslow, UK).

Regarding `CN(C)c1ccc(-c2nc3c(N4CCN(CC(=O)Nc5cccc(Cl)c5)CC4)c(Cl)cnc3[nH]2)cc1` [Example 24, 2-(4-(6-Chloro-2-(4-(dimethylamino)phenyl)-3H-imidazo[4,5-b]pyridin-7-yl)piperazin-1-yl)-N-(3-chlorophenyl)acetamide], the IC50 with HCT116 cells is 2000 to 50000 nM; at Aurora-A, below 500 nM.

With `CN1CCN(Cc2ccc(-c3nc4c(N5CCN(Cc6cccnc6)CC5)c(Br)cnc4[nH]3)cc2)CC1` [Example 96, 6-Bromo-2-(4-((4-methylpiperazin-1-yl)methyl)phenyl)-7-(4-(pyridin-3-ylmethyl)piperazin-1-yl)-3H-imidazo[4,5-b]pyridine], the results for the IC50 in the test on HCT116 cells and on Aurora-A were 500 to 2000 nM and below 500 nM, respectively.

Take `CC(c1ccccn1)N1CCN(c2c(Br)cnc3[nH]c(-c4ccc(N(C)C)cc4)nc23)CC1` (stereo not shown) [Example 50, 4-(6-Bromo-7-(4-(1-(pyridin-2-yl)ethyl)piperazin-1-yl)-3H-imidazo[4,5-b]pyridin-2-yl)-N,N-dimethylaniline]: the IC50 in the test with HCT116 cells was 500 to 2000 nM; at Aurora-A, below 500 nM.

`NCc1cccc(-c2nc3c(N4CCN(Cc5cccnc5)CC4)c(Br)cnc3[nH]2)c1` [Example 92, (3-(6-Bromo-7-(4-(pyridin-3-ylmethyl)piperazin-1-yl)-3H-imidazo[4,5-b]pyridin-2-yl)phenyl)methanamine]: the results for the IC50 in the test with HCT116 cells and at Aurora-A were 500 to 2000 nM and below 500 nM, respectively.

As to `Cc1nc(CN2CCN(c3c(Br)cnc4[nH]c(-c5ccc(N6CCOCC6)cc5)nc34)CC2)cs1` [Example 159, 4-(4-(6-Bromo-7-(4-((2-methylthiazol-4-yl)methyl)piperazin-1-yl)-3H-imidazo[4,5-b]pyridin-2-yl)phenyl)morpholine], the figures for the IC50 in the test on HCT116 cells and at Aurora-A were 500 to 2000 nM and below 500 nM, respectively.

`Cc1nc(CN2CCN(c3c(Br)cnc4[nH]c(-c5ccc(N6CCNCC6)cc5)nc34)CC2)cs1` [Example 163, 4-((4-(6-Bromo-2-(4-(piperazin-1-yl)phenyl)-3H-imidazo[4,5-b]pyridin-7-yl)piperazin-1-yl)methyl)-2-methylthiazole]: the IC50 with HCT116 cells and on Aurora-A was below 500 nM each time.

For `Cc1nc(CN2CCN(c3c(Br)cnc4[nH]c(-c5ccc(CN6CCOCC6)cc5)nc34)CC2)cs1` [Example 156, 4-(4-(6-Bromo-7-(4-((2-methylthiazol-4-yl)methyl)piperazin-1-yl)-3H-imidazo[4,5-b]pyridin-2-yl)benzyl)morpholine], the IC50 in the test with HCT116 cells and at Aurora-A was below 500 nM each time.

As to `COc1ccc(-c2nc3c(N4CCN(Cc5cc(C)on5)CC4)c(Br)cnc3[nH]2)cc1` [Example 74, 6-Bromo-2-(4-methoxy-phenyl)-7-[4-(5-methyl-isoxazol-3-ylmethyl)-piperazin-1-yl]-3H-imidazo[4,5-b]pyridine], the IC50 with HCT116 cells and on Aurora-A was below 500 nM each time.

Consider `Cc1nc(CN2CCN(c3c(Br)cnc4[nH]c(-c5ccc(-n6cccn6)cc5)nc34)CC2)cs1` [Example 161, 4-((4-(2-(4-(1H-Pyrazol-1-yl)phenyl)-6-bromo-3H-imidazo[4,5-b]pyridin-7-yl)piperazin-1-yl)methyl)-2-methylthiazole], for which the IC50 in the test with HCT116 cells was 2000 to 50000 nM; at Aurora-A, below 500 nM.

As for `Cn1cc(-c2nc3c(N4CCN(Cc5cccnc5)CC4)c(Br)cnc3[nH]2)cn1` [Example 56, 6-Bromo-2-(1-methyl-1H-pyrazol-4-yl)-7-(4-(pyridin-3-ylmethyl)piperazin-1-yl)-3H-imidazo[4,5-b]pyridine], the IC50 was 2000 to 50000 nM in the test with HCT116 cells and below 500 nM on Aurora-A.

Take `Brc1cnc2[nH]c(-c3ccc(OC4CCNCC4)cc3)nc2c1N1CCN(Cc2cccnc2)CC1` [Example 113, 6-Bromo-2-(4-(piperidin-4-yloxy)phenyl)-7-(4-(pyridin-3-ylmethyl)piperazin-1-yl)-3H-imidazo[4,5-b]pyridine]: the IC50 in the test on HCT116 cells and at Aurora-A was below 500 nM throughout.

Consider `Brc1cnc2[nH]c(-c3ccc(CN4CCOCC4)cc3)nc2c1N1CCN(Cc2cscn2)CC1` [Example 160, 4-(4-(6-Bromo-7-(4-(thiazol-4-ylmethyl)piperazin-1-yl)-3H-imidazo[4,5-b]pyridin-2-yl)benzyl)morpholine], for which the IC50 in the test with HCT116 cells and at Aurora-A was below 500 nM in each case.

`Brc1cnc2[nH]c(-c3ccc(CN4CCNCC4)cc3)nc2c1N1CCN(Cc2cscn2)CC1` [Example 179, 4-((4-(6-Bromo-2-(4-(piperazin-1-ylmethyl)phenyl)-3H-imidazo[4,5-b]pyridin-7-yl)piperazin-1-yl)methyl)thiazole]: the IC50 in the test with HCT116 cells was 500 to 2000 nM; on Aurora-A, below 500 nM.

Consider `CC(C)(C)OC(=O)N1CCN(Cc2ccc(-c3nc4c(N5CCN(Cc6cncnc6)CC5)c(Cl)cnc4[nH]3)cc2)CC1` [Example 140, tert-Butyl 4-(4-(6-chloro-7-(4-(pyrimidin-5-ylmethyl)piperazin-1-yl)-3H-imidazo[4,5-b]pyridin-2-yl)benzyl)piperazine-1-carboxylate], for which the IC50 with HCT116 cells and on Aurora-A was below 500 nM throughout.

With `Clc1ccc(CN2CCN(c3c(Br)cnc4[nH]c(-c5ccc(Cn6cccn6)cc5)nc34)CC2)cc1` [Example 85, 2-(4-((1H-Pyrazol-1-yl)methyl)phenyl)-6-bromo-7-(4-(4-chlorobenzyl)piperazin-1-yl)-3H-imidazo[4,5-b]pyridine], the IC50 in the test with HCT116 cells and at Aurora-A was below 500 nM throughout.

Consider `Cc1nn(C)c(C)c1-c1nc2c(N3CCN(Cc4cccnc4)CC3)c(Br)cnc2[nH]1` [Example 57, 6-Bromo-7-(4-(pyridin-3-ylmethyl)piperazin-1-yl)-2-(1,3,5-trimethyl-1H-pyrazol-4-yl)-3H-imidazo[4,5-b]pyridine], for which the IC50 is 2000 to 50000 nM in the test with HCT116 cells and below 500 nM at Aurora-A.

As to `O=C(CN1CCN(c2c(Br)cnc3[nH]c(-c4cccnc4)nc23)CC1)Nc1nccs1` [Example 44, 2-(4-(6-Bromo-2-(pyridin-3-yl)-3H-imidazo[4,5-b]pyridin-7-yl)piperazin-1-yl)-N-(thiazol-2-yl)acetamide], the IC50 with HCT116 cells was 500 to 2000 nM; on Aurora-A it was below 500 nM.

As to `Brc1cnc2[nH]c(-c3ccc(CN4CCOCC4)cc3)nc2c1N1CCN(CC2CCC2)CC1` [Example 150, 4-(4-(6-Bromo-7-(4-(cyclobutylmethyl)piperazin-1-yl)-3H-imidazo[4,5-b]pyridin-2-yl)benzyl)morpholine], the IC50 in the test with HCT116 cells and at Aurora-A was below 500 nM throughout.

For the compound `Brc1cnc2[nH]c(-c3ccc(-n4ccnc4)cc3)nc2c1N1CCN(Cc2cccnc2)CC1` [Example 109, 2-(4-(1H-Imidazol-1-yl)phenyl)-6-bromo-7-(4-(pyridin-3-ylmethyl)piperazin-1-yl)-3H-imidazo[4,5-b]pyridine], the IC50 with HCT116 cells was 500 to 2000 nM; on Aurora-A, below 500 nM.

`CC(C)(C)OC(=O)NCCc1nc2c(N3CCN(Cc4cccnc4)CC3)c(Br)cnc2[nH]1` [Example 97, tert-Butyl 2-(6-bromo-7-(4-(pyridin-3-ylmethyl)piperazin-1-yl)-3H-imidazo[4,5-b]pyridin-2-yl)ethylcarbamate]: the IC50 is 2000 to 50000 nM in the test with HCT116 cells and below 500 nM on Aurora-A.

Turning to `CN(C)c1ccc(-c2nc3c(N4CCC(CC(=O)Nc5nccs5)CC4)c(Br)cnc3[nH]2)cc1` [Example 90, 2-{1-[6-Bromo-2-(4-dimethylamino-phenyl)-3H-imidazo[4,5-b]pyridin-7-yl]-piperidin-4-yl}-N-thiazol-2-yl-acetamide], the values for the IC50 in the test with HCT116 cells and on Aurora-A were 500 to 2000 nM and below 500 nM, respectively.

For `COc1ccc(-c2nc3c(N4CCN(CC(=O)Nc5cc(C)no5)CC4)c(Cl)cnc3[nH]2)cc1` [Example 64, 2-(4-(6-Chloro-2-(4-methoxyphenyl)-3H-imidazo[4,5-b]pyridin-7-yl)piperazin-1-yl)-N-(3-methylisoxazol-5-yl)acetamide], the values for the IC50 in the test on HCT116 cells and at Aurora-A were 500 to 2000 nM and below 500 nM, respectively.

As for `CC(C)(C)OC(=O)NCc1ccc(-c2nc3c(N4CCN(Cc5cccnc5)CC4)c(Br)cnc3[nH]2)cc1` [Example 59, tert-Butyl 4-(6-bromo-7-(4-(pyridin-3-ylmethyl)piperazin-1-yl)-3H-imidazo[4,5-b]pyridin-2-yl)benzylcarbamate], the results for the IC50 in the test with HCT116 cells and on Aurora-A were 2000 to 50000 nM and below 500 nM, respectively.
